# Test results as given in patent US9969766B2, “20(R)-ginsenoside Rg3 polyacylated derivatives, preparation and application thereof” (priority 2014, dated 2018).
# Read-outs that look alike come from different tables or passages of the source.
# Key:
# [1] = system: human stomach cancer MGC cells; test: Human stomach cancer MGC in-situ inoculation, survival; conditions: for Animal body weight (g) Start / Animal body weight (g) end / Average survival (d) X ± SD / Life extension rate T/C × %: po × 14bid
# Source text: (§1) human breast cancer Bcap-37 model, human lung cancer A549 model, human intestinal cancer LOVO model, human stomach cancer MGC model and human liver cancer QGY model, with tumor cell lines being of the second generation or more, mouse B16 melanoma cell line, mouse Lewis lung cancer model, mouse sarcoma s180 model, all passaged and preserved in Pharmacological Division of Shanghai Institute of Pharmaceutical Industry. 3. Experiment Animals Origins: nude mice, 6-week old, 18-22 g/mouse, provided by Laboratory Animal Center of Chinese Academy of Sciences, Shanghai Branch, with certification No. 2001A032. C57BL/6 mice and Kunming mice, 18-22 g/mouse, provided by Laboratory Animal Center of Chinese Academy of Sciences, Shanghai Branch, with certification SYXK (Shanghai) 2004-0015. Gender: male or female, the same gender for each batch in experiment Animal numbers: 10 mice and 10 nude mice for each of positive control group and test group in experiment, and 20 for negative control group. 4. Experiment Design Dose Settings: doses for 20(R)-ginsenoside Rg3 octo-acetate, 20(R)-ginsenoside Rg3 octo-n-butyrate and 20(R)-ginsenoside Rg3 octo-n-propionate were set as high-dose group (0.3 mg/kg/d), medium-dose group (0.06 mg/kg/d), and low-dose group (0.012 mg/kg/d). Dosage regimen: oral administration, twice daily. human tumor model and cell-inoculated mouse model: po×14 bid; mouse tumor-inoculated model: po×10 bid. Control Trial: negative control group: given with the same volume of 5% CMC-Na as the test group, and the same dosage regimen as the test group. positive control group: Cyclophosphamide CTX 30 mg/kg, MMC 2 mg/kg and 5Fu 30 mg/kg by intraperitoneal or intravenous administration, once daily, for seven consecutive days. 5. Experiment Method and Key Steps 5.1 Anti-Tumor Test 5.1.1 Subcutaneous Inoculation Model
# [2] = system: mouse melanoma B16 cells; test: Mouse melanoma B16 tail vein inoculation, lung metastasis; conditions: po × 14bid
# Source text: as §1
# [3] = system: human intestinal cancer LOVO cells; conditions: po × 14bid
# Source text: as §1, with “MMC 2 mg/kg and 5Fu 30 mg/kg by intraperitoneal or intravenous administration, once daily, for seven consecutive days.” left out
# LOVO intestinal cancer cells (cultured in vitro) of logarithmic growth stage were taken under sterile condition and prepared into cell suspensions of about 1.8×10^7/ml using RPMI1640 culture medium as diluent. The nude mice were subjected to general anesthesia and cut in belly after routine disinfection to belly skin, the spleens were taken out and inoculated with LOVO intestinal cancer cell suspensions (0.05 ml/mouse) and then restored, the incisions were sutured, and the mice were placed in the cages and then put in the laminar flow rack.
# [4] = system: mouse sarcoma S180 cells; test: Mouse sarcoma S180 metastasis model; conditions: po × 14bid
# Source text: as §1
# [5] = system: mouse Lewis lung cancer; test: Mouse Lewis lung cancer (subcutaneous inoculation) metastasis model; conditions: po × 14bid
# Source text: as §1
# Tumor cells of vigorous growth stage were taken under sterile condition and made into cell suspensions of about 1-2×10^7/ml by homogenization, the suspensions were inoculated subcutaneously at 0.2 ml/mouse in host mice and repeated on the next day according to the experiment design, the animals in each group were slaughtered after about three weeks, the tumors were collected and weighed, and the tumor inhibition rates were calculated according to the following equation: tumor inhibition rate %=[(average tumor weight of control group-average tumor weight of treatment group)/average tumor weight of control group]×100%
# [6] = system: human liver cancer QGY cells; test: Human liver cancer QGY liver in-situ inoculation, survival; conditions: po × 14bid
# Source text: as §1
# Under sterile condition, the in vivo passage of the second generation of QGY tumor source of vigorous growth stage was prepared into cell suspensions of about 1-2×10^7/ml by homogenization (1:6), and the homogenates were filtered using 100-mesh stainless steel screen, getting ready for use. The nude mice were disinfected routinely and anaesthetized and cut at the xiphoid in the middle of the abdominal cavity to expose the liver, the cell suspensions (0.05 ml) were injected into liver parenchyma using imported 28 ga ½ ml syringes, the abdominal cavity was closed and then sutured layer by layer. The nude mice were fed in the laminar flow rack, with all the feed, packing, cage and contact instruments being sterilized under high pressure before use.
smiles,measurement,setting,value
"CC(=O)OC[C@H]1O[C@@H](OC2CC[C@]3(C)C(CC[C@@]4(C)C3C[C@H](OC(C)=O)C3C([C@@](C)(O)CCC=C(C)C)CC[C@@]34C)C2(C)C)[C@H](OC2O[C@H](COC(C)=O)[C@@H](OC(C)=O)[C@H](OC(C)=O)[C@H]2OC(C)=O)[C@@H](OC(C)=O)[C@@H]1OC(C)=O (stereo partly drawn) [Rg3-octo-acetate, 20 (R)-ginsenoside Rg3 octaacetate]",Animal body weight (g) Start,[1]; 0.012 mg/kg/d,19.8 g
same,Animal body weight (g) end,[1]; 0.012 mg/kg/d,25.4 g
same,Average survival (d) X ± SD,[1]; 0.012 mg/kg/d,38.84 ± 0.14 days
same,Life extension rate T/C × %,[1]; 0.012 mg/kg/d,170.56%
same,Animal body weight (g) Start,[1]; 0.06 mg/kg/d,19.6 g
same,Animal body weight (g) end,[1]; 0.06 mg/kg/d,24.6 g
same,Average survival (d) X ± SD,[1]; 0.06 mg/kg/d,41.21 ± 0.11 days
same,Life extension rate T/C × %,[1]; 0.06 mg/kg/d,180.98%
same,Animal body weight (g) Start,[1]; 0.3 mg/kg/d,19.7 g
same,Animal body weight (g) end,[1]; 0.3 mg/kg/d,24.1 g
same,Average survival (d) X ± SD,[1]; 0.3 mg/kg/d,46.04 ± 0.12 days
same,Life extension rate T/C × %,[1]; 0.3 mg/kg/d,202.19%
same,life-prolonging effect versus positive control group,"[1]; high-dose groups, summary of Table 7-9: human stomach, intestinal and liver cancer",better than the positive control group
same,Anti-metastasis rate %,[2]; 0.012 mg/kg/d,50.90%
same,Lung clone numbers (mice) X ± SD,[2]; 0.012 mg/kg/d,23.62 ± 7.0
same,Anti-metastasis rate %,[2]; 0.06 mg/kg/d,63.87%
same,Lung clone numbers (mice) X ± SD,[2]; 0.06 mg/kg/d,17.38 ± 7.1
same,Anti-metastasis rate %,[2]; 0.3 mg/kg/d,79.98%
same,Lung clone numbers (mice) X ± SD,[2]; 0.3 mg/kg/d,9.63 ± 7.9
same,Average survival (d) X ± SD,[3]; 0.012 mg/kg/d,24.59 ± 4.5 days
same,Life extension rate T/C × %,[3]; 0.012 mg/kg/d,179.99%
same,Average survival (d) X ± SD,[3]; 0.06 mg/kg/d,25.80 ± 4.8 days
same,Life extension rate T/C × %,[3]; 0.06 mg/kg/d,188.90%
same,Average survival (d) X ± SD,[3]; 0.3 mg/kg/d,31.50 ± 5.1 days
same,Life extension rate T/C × %,[3]; 0.3 mg/kg/d,230.59%
same,Anti-metastasis rate %,[4]; 0.012 mg/kg/d,51.50%
same,Lung clone numbers (mice) X ± SD,[4]; 0.012 mg/kg/d,1.43 ± 7.1
same,Anti-metastasis rate %,[4]; 0.06 mg/kg/d,65.80%
same,Lung clone numbers (mice) X ± SD,[4]; 0.06 mg/kg/d,1.01 ± 7.2
same,Anti-metastasis rate %,[4]; 0.3 mg/kg/d,78.94%
same,Lung clone numbers (mice) X ± SD,[4]; 0.3 mg/kg/d,0.62 ± 7.3
same,Anti-metastasis rate %,[5]; 0.012 mg/kg/d,50.30%
same,Lung clone numbers (mice) X ± SD,[5]; 0.012 mg/kg/d,1.38 ± 0.13
same,Anti-metastasis rate %,[5]; 0.06 mg/kg/d,58.90%
same,Lung clone numbers (mice) X ± SD,[5]; 0.06 mg/kg/d,1.14 ± 0.12
same,Anti-metastasis rate %,[5]; 0.3 mg/kg/d,69.96%
same,Lung clone numbers (mice) X ± SD,[5]; 0.3 mg/kg/d,0.84 ± 0.15
same,Animal body weight (g) Start,[6]; 0.012 mg/kg/d,19.1 g
same,Animal body weight (g) end,[6]; 0.012 mg/kg/d,25.2 g
same,Average survival (d) X ± SD,[6]; 0.012 mg/kg/d,37.26 ± 4.5 days
same,Life extension rate T/C × %,[6]; 0.012 mg/kg/d,159.58%
same,Animal body weight (g) Start,[6]; 0.06 mg/kg/d,19.1 g
same,Animal body weight (g) end,[6]; 0.06 mg/kg/d,24.3 g
same,Average survival (d) X ± SD,[6]; 0.06 mg/kg/d,38.90 ± 4.1 days
same,Life extension rate T/C × %,[6]; 0.06 mg/kg/d,166.59%
same,Animal body weight (g) Start,[6]; 0.3 mg/kg/d,19.3 g
same,Animal body weight (g) end,[6]; 0.3 mg/kg/d,24.8 g
same,Average survival (d) X ± SD,[6]; 0.3 mg/kg/d,42.49 ± 5.0 days
same,Life extension rate T/C × %,[6]; 0.3 mg/kg/d,181.98%
